Assay results as given in patent US10072023B2, “Diarylethene compounds and uses thereof” (SWITCH MATERIALS, INC., priority 2011, dated 2018).

Tests used:
Assay type in all cases: physicochemical
[1] = Absorbance at photostationary state (PSS) under simulated sunlight or 365 nm light; set-up: λ max: unit not given here; conditions: for Absorbance at PSS, 365 nm: 365 nm light source; for Absorbance at PSS, 365 nm / Absorbance at PSS, full / Absorbance at PSS, +UV / λ max: 2.0×10^−5 M in triglyme; for sensitivity index: ratio of PSS under 365 nm light to PSS under full spectrum light (without UV blocking film); for Absorbance at PSS, full: simulated sunlight (QSUN solar simulator), no UV blocking film; for Absorbance at PSS, +UV: simulated sunlight with UV blocking film (cutoff 370 nm); for λ max: wavelength of maximum absorbance in the visible range, ring-closed isoform
In short: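 Compounds at 2.0×10^−5 M in triglyme, photofaded with visible light, then irradiated with simulated sunlight (xenon arc) or 365 nm light until the UV/Vis spectrum stabilized. Also irradiated through a UV-blocking film (370 nm cutoff); sensitivity index is PSS under 365 nm divided by PSS under full spectrum.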

[2] = PSS and light composition (sunlight vs interior lighting); conditions: 2×10^−4 M in triglyme
Text: The difference in PSS as a function of light source type was investigated. The light sources included direct sunlight (filtered through window glass) and interior lighting. Irradiance information and spectral profiles of light sources are provided in Table 9 and FIG. 2, respectively. Six compounds (2×10^−4 M solutions of S096, S094, S079, S044, S042 and S035 in triglyme) were investigated and compared for performance on the basis of maximum difference in darkening ability between sunlight and interior lighting conditions. Darkening ability is indicated by the absorbance at λmax in the visible light spectrum for the ring-closed isomer of the chromophore.
Samples were then moved away from the window (300 cm from window, with interior lighting on) to alter the light composition by reducing the sunlight component. […] Finally, samples were again irradiated to the darkest state under sunlight conditions (20 cm from window) and then subjected to interior lighting conditions only (sunlight blocked out with blinds), allowing the samples to fade to a lower PSS specific to these lighting conditions as shown in FIG. 3.
Sample darkening times were less than one minute, while sample photofading times ranged as high as 20 minutes. […]

[3] = Solubility in indicated solvent; conditions: % wt soluble in triglyme
Text: A compound with greater solubility allows for a formulation or material with a greater concentration of coloured molecule to be incorporated into a composition. This may allow for increasing the contrast ratio for a compound with a lesser absorbance at PSS. Inclusion of a solubilizing group in a compound according to various embodiments of the invention may increase solubility. Examples of solubilizing groups may include alkoxy or siloxy groups.

SMILES	Absorbance at PSS, 365 nm [1]	sensitivity index [1]	Absorbance at PSS, full [1]	Absorbance at PSS, +UV [1]	λ max [1]	change in degree of coloration in response to variation in the light source [2]	Solubility [3]
CC(C)(C)c1ccc(-c2cc(C3=C(c4cc(-c5ccc(C(C)(C)C)cc5)sc4-c4ccc(C(C)(C)C)cc4)C(F)(F)C(F)(F)C3(F)F)c(-c3ccc(C(C)(C)C)cc3)s2)cc1 [S042]	0.233	2.40	0.097	0.04	612	greatest change in degree of coloration	0.5 % wt
CC(C)(C)c1ccc(-c2sc(-c3ccccc3)cc2C2=C(c3cc(-c4ccccc4)sc3-c3ccc(C(C)(C)C)cc3)C(F)(F)C(F)(F)C2(F)F)cc1 [S057, 3,3′-(perfluorocyclopent-1-ene-1,2-diyl)bis(2-(4-tert-butylphenyl)-5-phenylthiophene)]	0.204	2.58	0.079	0.033	610	–	1.5 % wt
CC(C)(C)c1ccc(-c2sc(-c3ccc(Cl)cc3)cc2C2=C(c3cc(-c4ccc(Cl)cc4)sc3-c3ccc(C(C)(C)C)cc3)C(F)(F)C(F)(F)C2(F)F)cc1 [S060]	0.22	2.06	0.107	0.038	615	–	1 % wt
CC(C)(C)c1ccc(-c2sc(-c3ccc(C4(C)OCCO4)cc3)cc2C2=C(c3cc(-c4ccc(C5(C)OCCO5)cc4)sc3-c3ccc(C(C)(C)C)cc3)C(F)(F)C(F)(F)C2(F)F)cc1 [S066, 2,2′-((4,4′-(perfluorocyclopent-1-ene-1,2-diyl)bis(5-(4-(tert-butyl)phenyl)thiophene-4,2-diyl))bis(4,1-phenylene))bis(2-methyl-1,3-dioxolane)]	0.226	2.28	0.099	0.049	615	–	2.5 % wt
COCCOCCOCCOC(C)(C)c1ccc(-c2cc(C3=C(c4cc(-c5ccc(C(C)(C)OCCOCCOCCOC)cc5)sc4-c4ccc(C(C)(C)C)cc4)C(F)(F)C(F)(F)C3(F)F)c(-c3ccc(C(C)(C)C)cc3)s2)cc1 [S068, 12,12′-((4,4′-(perfluorocyclopent-1-ene-1,2-diyl)bis(5-(4-(tert-butyl)phenyl)thiophene-4,2-diyl))bis(4,1-phenylene))bis(12-methyl-2,5,8,11-tetraoxatridecane)]	0.239	2.15	0.111	0.051	615	–	>20 % wt
c1ccc(-c2nc(-c3cc(-c4cccs4)sc3-c3cccs3)c(-c3cc(-c4cccs4)sc3-c3cccs3)s2)cc1 [S075]	0.302	3.82	0.079	0.031	670	–	1 % wt
CCCCCCCCc1ccc(-c2oc3ccccc3c2C2=C(c3c(-c4ccc(CCCCCCCC)cc4)oc4ccccc34)C(F)(F)C(F)(F)C2(F)F)cc1 [S079, 1,2-bis(2-(4-n-octylphenyl)-1-benzofuran-3-yl)perfluorocyclopentene]	0.17	7.39	0.023	0.008	490	–	8-11 % wt
CC(C)CCOc1ccc(-c2cc(C3=C(c4cc(-c5ccc(OCCC(C)C)cc5)sc4-c4ccc(OCCC(C)C)cc4)C(F)(F)C(F)(F)C3(F)F)c(-c3ccc(OCCC(C)C)cc3)s2)cc1 [S094, 3,3′-(perfluorocyclopent-1-ene-1,2-diyl)bis(2,5-bis(4-(isopentyloxy)phenyl)thiophene)]	0.311	1.74	0.179	0.103	625	greatest change in degree of coloration	–
COc1cccc(-c2cc(C3=C(c4cc(-c5cccc(OC)c5)sc4-c4cccc(OC)c4)C(F)(F)C(F)(F)C3(F)F)c(-c3cccc(OC)c3)s2)c1 [S096, 3,3′-(perfluorocyclopent-1-ene-1,2-diyl)bis(2,5-bis(3-methoxyphenyl)thiophene)]	0.183	4.07	0.045	0.014	609	–	15 % wt
COCCOCCOCCOc1ccc(-c2sc(-c3ccc(C(C)(C)C)s3)cc2C2=C(c3cc(-c4ccc(C(C)(C)C)s4)sc3-c3ccc(OCCOCCOCCOC)cc3)C(F)(F)C(F)(F)C2(F)F)cc1 [S108]	0.374	1.28	0.292	0.215	645	–	>25 % wt
CCOCCOCCOCCOc1ccc(-c2sc(-c3ccc(C(C)(C)C)s3)cc2C2=C(c3cc(-c4ccc(C(C)(C)C)s4)sc3-c3ccc(OCCOCCOCCOCC)cc3)C(F)(F)C(F)(F)C2(F)F)cc1 [S109, 4,4″-(perfluorocyclopent-1-ene-1,2-diyl)bis(5′-(tert-butyl)-5-(4-(2-(2-(2-ethoxyethoxy)ethoxy)ethoxy)phenyl)-2,2′-bithiophene)]	0.367	1.24	0.296	0.217	645	–	>25 % wt
CCOCCOCCOCCOC(CC)(CC)c1ccc(-c2sc(-c3ccc(C(C)(C)C)s3)cc2C2=C(c3cc(-c4ccc(C(C)(C)C)s4)sc3-c3ccc(C(CC)(CC)OCCOCCOCCOCC)s3)C(F)(F)C(F)(F)C2(F)F)s1 [S128, 13,13′-(3′,3″″-(perfluorocyclopent-1-ene-1,2-diyl)bis(5″-(tert-butyl)-[2,2′: 5′,2″-terthiophene]-5,3′-diyl))bis(13-ethyl-3,6,9,12-tetraoxapentadecane)]	0.403	1.53	0.264	0.224	648	–	>25 % wt
COCCC[Si](CCCOC)(CCCOC)c1ccc(-c2cc(C3=C(c4cc(-c5ccc([Si](CCCOC)(CCCOC)CCCOC)s5)sc4-c4ccc([Si](CCCOC)(CCCOC)CCCOC)s4)C(F)(F)C(F)(F)C3(F)F)c(-c3ccc([Si](CCCOC)(CCCOC)CCCOC)s3)s2)s1 [S138]	0.337	1.10	0.306	0.262	650	–	>20 % wt
COCCC[Si](CCCOC)(CCCOC)c1ccc(-c2sc(-c3ccc(C(C)(C)C)s3)cc2C2=C(c3cc(-c4ccc(C(C)(C)C)s4)sc3-c3ccc([Si](CCCOC)(CCCOC)CCCOC)s3)C(F)(F)C(F)(F)C2(F)F)s1 [S158]	0.394	1.15	0.342	0.291	650	–	>20 % wt
